Experimental data: patent publication US11987588B2, “Modulators of the beta-3 adrenergic receptor useful for the treatment or prevention of heart failure and disorders related thereto” (Arena Pharmaceuticals, Inc., priority 2017, dated 2024)

Molecular target: Beta-3 Adrenergic Receptor (Homo sapiens (Human), UniProt P13945)
Experiment: Homogeneous Time-Resolved Fluorescence (HTRF) cAMP antagonist assay, IC50 determination
Assay type: cell-based
Conditions: CHO-K1 cells stably expressing recombinant receptor, isoproterenol at EC90
Procedure, shortened: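 CHO-K1 cells stably expressing receptor, 1500 cells/well, preincubated briefly with 10-point 5-fold compound series (top final typically 10 or 100 μM) in PBS with 1 mM IBMX, then challenged with isoproterenol at EC90 for 1 h at room temperature. cAMP read by HTRF against on-plate standard curve; IC50 from dose-response.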

Chain of Beta-3 Adrenergic Receptor (P13945 whole entry, species assumed): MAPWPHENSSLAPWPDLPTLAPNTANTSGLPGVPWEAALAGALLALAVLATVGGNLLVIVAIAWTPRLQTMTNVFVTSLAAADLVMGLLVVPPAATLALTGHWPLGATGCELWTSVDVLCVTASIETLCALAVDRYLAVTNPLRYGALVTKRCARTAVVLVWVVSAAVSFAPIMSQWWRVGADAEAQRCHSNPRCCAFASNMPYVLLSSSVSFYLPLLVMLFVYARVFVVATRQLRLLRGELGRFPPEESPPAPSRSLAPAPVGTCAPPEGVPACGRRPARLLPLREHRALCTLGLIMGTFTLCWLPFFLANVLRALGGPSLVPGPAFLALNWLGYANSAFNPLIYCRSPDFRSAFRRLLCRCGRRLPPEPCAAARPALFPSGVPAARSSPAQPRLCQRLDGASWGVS

Row | Structure (SMILES) | IC50 [nM]
1 | CNS(=O)(=O)c1cccc(OC[C@@H](O)CNC2COC3(CCN(S(=O)(=O)c4sc(-c5ccccc5)nc4C)CC3)C2)c1 (stereo partly drawn) [Compound 186, 3-((2S)-2-hydroxy-3-(8-(4-methyl-2-phenylthiazol-5-ylsulfonyl)-1-oxa-8-azaspiro[4.5]decan-3-ylamino)propoxy)-N-methylbenzenesulfonamide] | 15.7
2 | CNS(=O)(=O)c1cccc(OC[C@@H](O)CN[C@H]2COC3(CCN(c4cnc(C(F)(F)F)cn4)CC3)C2)c1 [Compound 585, 3-((S)-2-hydroxy-3-((R)-8-(5-(trifluoromethyl)pyrazin-2-yl)-1-oxa-8-azaspiro[4.5]decan-3-ylamino)propoxy)-N-methylbenzenesulfonamide] | 202
3 | CNS(=O)(=O)c1cccc(OC[C@@H](O)CNC2COC3(CCN(S(=O)(=O)c4ccn(C)n4)CC3)C2)c1 (stereo partly drawn) [Compound 193, 3-((2S)-2-hydroxy-3-(8-(1-methyl-1H-pyrazol-3-ylsulfonyl)-1-oxa-8-azaspiro[4.5]decan-3-ylamino)propoxy)-N-methylbenzenesulfonamide] | 54.8
4 | CNS(=O)(=O)c1cccc(OC[C@@H](O)CNC2COC3(CCN(S(=O)(=O)c4cc(C)cc(C)c4)CC3)C2)c1 (stereo partly drawn) [Compound 23, 3-((2S)-3-(8-(3,5-dimethylphenylsulfonyl)-1-oxa-8-azaspiro[4.5]decan-3-ylamino)-2-hydroxypropoxy)-N-methylbenzenesulfonamide] | 13.8
5 | CNS(=O)(=O)c1cccc(OC[C@@H](O)CN[C@H]2COC3(CCN(S(=O)(=O)c4cnc5c(c4)OCCN5C)CC3)C2)c1 [Compound 481, 3-((S)-2-hydroxy-3-((R)-8-(4-methyl-3,4-dihydro-2H-pyrido[3,2-b][1,4]oxazin-7-ylsulfonyl)-1-oxa-8-azaspiro[4.5]decan-3-ylamino)propoxy)-N-methylbenzenesulfonamide] | 31.1
6 | CNS(=O)(=O)c1cccc(OC[C@@H](O)CN[C@H]2COC3(CCN(S(=O)(=O)c4cccc5nsnc45)CC3)C2)c1 [Compound 245, 3-((S)-3-((R)-8-(benzo[c][1,2,5]thiadiazol-4-ylsulfonyl)-1-oxa-8-azaspiro[4.5]decan-3-ylamino)-2-hydroxypropoxy)-N-methylbenzenesulfonamide] | 15.5
7 | CONS(=O)(=O)c1cccc(OC[C@@H](O)CN[C@H]2COC3(CCN(S(=O)(=O)c4cnc5c(c4)N(C)CCO5)CC3)C2)c1 [Compound 451, 3-((S)-2-hydroxy-3-((R)-8-(1-methyl-2,3-dihydro-1H-pyrido[2,3-b][1,4]oxazin-7-ylsulfonyl)-1-oxa-8-azaspiro[4.5]decan-3-ylamino)propoxy)-N-methoxybenzenesulfonamide] | 2130
8 | CCOc1ccc(-c2ccc(CN)cc2)cc1S(=O)(=O)N1CCC2(CC1)CC(NC[C@H](O)COc1cccc(S(=O)(=O)NC)c1)CO2 (stereo partly drawn) [Compound 404, 3-((2S)-3-(8-(4′-(aminomethyl)-4-ethoxybiphenyl-3-ylsulfonyl)-1-oxa-8-azaspiro[4.5]decan-3-ylamino)-2-hydroxypropoxy)-N-methylbenzenesulfonamide] | 13
9 | CN(C)S(=O)(=O)c1cccc(OC[C@@H](O)CNC2COC3(CCN(S(=O)(=O)c4cccc(Cl)c4)CC3)C2)c1 (stereo partly drawn) [Compound 246, 3-((2S)-3-(8-(3-chlorophenylsulfonyl)-1-oxa-8-azaspiro[4.5]decan-3-ylamino)-2-hydroxypropoxy)-N,N-dimethylbenzenesulfonamide] | 38.6
10 | CNS(=O)(=O)c1cccc(OC[C@@H](O)CN[C@H]2COC3(CCN(S(=O)(=O)c4cc(-c5ccc(CN)cc5)ccc4OC)CC3)C2)c1 [Compound 385, 3-((S)-3-((R)-8-(4′-(aminomethyl)-4-methoxybiphenyl-3-ylsulfonyl)-1-oxa-8-azaspiro[4.5]decan-3-ylamino)-2-hydroxypropoxy)-N-methylbenzenesulfonamide] | 11
11 | CNS(=O)(=O)c1cccc(OC[C@@H](O)CNC2COC3(CCN(S(=O)(=O)c4cc(F)ccc4OC)CC3)C2)c1 (stereo partly drawn) [Compound 238, 3-((2S)-3-(8-(5-fluoro-2-methoxyphenylsulfonyl)-1-oxa-8-azaspiro[4.5]decan-3-ylamino)-2-hydroxypropoxy)-N-methylbenzenesulfonamide] | 38.4
12 | COc1ccc(S(=O)(=O)N2CCC3(CC2)CC(NC[C@H](O)COc2cccc(S(=O)(=O)N(C)C)c2)CO3)cc1C (stereo partly drawn) [Compound 247, 3-((2S)-2-hydroxy-3-(8-(4-methoxy-3-methylphenylsulfonyl)-1-oxa-8-azaspiro[4.5]decan-3-ylamino)propoxy)-N,N-dimethylbenzenesulfonamide] | 27.2
13 | CCN1CCOc2ncc(S(=O)(=O)N3CCC4(CC3)CC(NC[C@H](O)COc3cccc(S(=O)(=O)NC)c3)CO4)cc21 (stereo partly drawn) [Compound 423, 3-((2S)-3-(8-(1-ethyl-2,3-dihydro-1H-pyrido[2,3-b][1,4]oxazin-7-ylsulfonyl)-1-oxa-8-azaspiro[4.5]decan-3-ylamino)-2-hydroxypropoxy)-N-methylbenzenesulfonamide] | 12.6

Second part, the compound after the results:

Row | IC50 [nM] | Structure (SMILES)
14 | 65.4 | NS(=O)(=O)c1cccc(OC[C@@H](O)CNC2COC3(CCN(S(=O)(=O)c4ccc5ccccc5c4)CC3)C2)c1 (stereo partly drawn) [Compound 306, 3-((2S)-2-hydroxy-3-(8-(naphthalen-2-ylsulfonyl)-1-oxa-8-azaspiro[4.5]decan-3-ylamino)propoxy)benzenesulfonamide]
15 | 387 | CNS(=O)(=O)c1cccc(OC[C@@H](O)CNC2COC3(CCN(S(=O)(=O)c4cccc(C(=O)O)c4)CC3)C2)c1 (stereo partly drawn) [Compound 56, 3-(3-((S)-2-hydroxy-3-(3-(N-methylsulfamoyl)phenoxy)propylamino)-1-oxa-8-azaspiro[4.5]decan-8-ylsulfonyl)benzoic acid]
16 | 52.6 | CCNS(=O)(=O)c1cccc(OC[C@@H](O)CNC2COC3(CCN(S(=O)(=O)c4ccc5c(c4)N(C)CCO5)CC3)C2)c1 (stereo partly drawn) [Compound 234, N-ethyl-3-((2S)-2-hydroxy-3-(8-(4-methyl-3,4-dihydro-2H-benzo[b][1,4]oxazin-6-ylsulfonyl)-1-oxa-8-azaspiro[4.5]decan-3-ylamino)propoxy)benzenesulfonamide]
17 | 7.53 | CNS(=O)(=O)c1cccc(OC[C@@H](O)CN[C@H]2COC3(CCN(S(=O)(=O)c4ccc(Br)c(C)c4)CC3)C2)c1 [Compound 271, 3-((S)-3-((R)-8-(4-bromo-3-methylphenylsulfonyl)-1-oxa-8-azaspiro[4.5]decan-3-ylamino)-2-hydroxypropoxy)-N-methylbenzenesulfonamide]
18 | 9.43 | CNS(=O)(=O)c1cccc(OC[C@@H](O)CN[C@H]2COC3(CCN(S(=O)(=O)c4ccc(OC)c(C)c4)CC3)C2)c1 [Compound 267, 3-((S)-2-hydroxy-3-((R)-8-(4-methoxy-3-methylphenylsulfonyl)-1-oxa-8-azaspiro[4.5]decan-3-ylamino)propoxy)-N-methylbenzenesulfonamide]
19 | 42.7 | CNS(=O)(=O)c1cccc(OC[C@@H](O)CNC2COC3(CCN(S(=O)(=O)c4ccc5[nH]ncc5c4)CC3)C2)c1 (stereo partly drawn) [Compound 325, 3-((2S)-3-(8-(1H-indazol-5-ylsulfonyl)-1-oxa-8-azaspiro[4.5]decan-3-ylamino)-2-hydroxypropoxy)-N-methylbenzenesulfonamide]
20 | 28.7 | CNS(=O)(=O)c1cccc(OC[C@@H](O)CNC2COC3(CCN(S(=O)(=O)c4cccc(-c5cccc(C#N)c5)c4)CC3)C2)c1 (stereo partly drawn) [Compound 72, 3-((2S)-3-(8-(3′-cyanobiphenyl-3-ylsulfonyl)-1-oxa-8-azaspiro[4.5]decan-3-ylamino)-2-hydroxypropoxy)-N-methylbenzenesulfonamide]
21 | 31.9 | CNS(=O)(=O)c1cccc(OC[C@@H](O)CNC2COC3(CCN(S(=O)(=O)c4ccc(NC(C)=O)cc4)CC3)C2)c1 (stereo partly drawn) [Compound 42, N-(4-(3-((S)-2-hydroxy-3-(3-(N-methylsulfamoyl)phenoxy)propylamino)-1-oxa-8-azaspiro[4.5]decan-8-ylsulfonyl)phenyl)acetamide]
22 | 58.5 | O=S(=O)(NCCCO)c1cccc(OC[C@@H](O)CNC2COC3(CCN(S(=O)(=O)c4ccc5ccccc5c4)CC3)C2)c1 (stereo partly drawn) [Compound 51, 3-((2S)-2-hydroxy-3-(8-(naphthalen-2-ylsulfonyl)-1-oxa-8-azaspiro[4.5]decan-3-ylamino)propoxy)-N-(3-hydroxypropyl)benzenesulfonamide]
23 | 8.32 | CNS(=O)(=O)c1cccc(OC[C@@H](O)CNC2COC3(CCN(S(=O)(=O)c4ccc(Oc5ccccc5)nc4)CC3)C2)c1 (stereo partly drawn) [Compound 130, 3-((2S)-2-hydroxy-3-(8-(6-phenoxypyridin-3-ylsulfonyl)-1-oxa-8-azaspiro[4.5]decan-3-ylamino)propoxy)-N-methylbenzenesulfonamide]
24 | 39.1 | CNS(=O)(=O)c1cccc(OC[C@@H](O)CNC2COC3(CCN(S(=O)(=O)c4ccc(-c5ccncc5)cc4)CC3)C2)c1 (stereo partly drawn) [Compound 408, 3-((2S)-2-hydroxy-3-(8-(4-(pyridin-4-yl)phenylsulfonyl)-1-oxa-8-azaspiro[4.5]decan-3-ylamino)propoxy)-N-methylbenzenesulfonamide]
25 | 51.3 | CNS(=O)(=O)c1cccc(OC[C@@H](O)CNC2COC3(CCN(S(=O)(=O)c4ccccc4OC)CC3)C2)c1 (stereo partly drawn) [Compound 398, 3-((2S)-2-hydroxy-3-(8-(2-methoxyphenylsulfonyl)-1-oxa-8-azaspiro[4.5]decan-3-ylamino)propoxy)-N-methylbenzenesulfonamide]
26 | 24.2 | CCNS(=O)(=O)c1cccc(OC[C@@H](O)CNC2COC3(CCN(S(=O)(=O)c4ccc5c(c4)NC(=O)CO5)CC3)C2)c1 (stereo partly drawn) [Compound 228, N-ethyl-3-((2S)-2-hydroxy-3-(8-(3-oxo-3,4-dihydro-2H-benzo[b][1,4]oxazin-6-ylsulfonyl)-1-oxa-8-azaspiro[4.5]decan-3-ylamino)propoxy)benzenesulfonamide]
27 | 1010 | CN(C)CCCNS(=O)(=O)c1cccc(OC[C@@H](O)CNC2COC3(CCN(S(=O)(=O)c4ccc5ccccc5c4)CC3)C2)c1 (stereo partly drawn) [Compound 317, N-(3-(dimethylamino)propyl)-3-((2S)-2-hydroxy-3-(8-(naphthalen-2-ylsulfonyl)-1-oxa-8-azaspiro[4.5]decan-3-ylamino)propoxy)benzenesulfonamide]
